Test results from patent US12338256B2, “Aza-tetracyclic oxazepine compounds and uses thereof” (Genentech, Inc., priority 2022, dated 2025).
Like-named read-outs stand apart in the source and are kept apart here.

What was measured:
Assay type in all cases: cell-based
[1] = tested on: AsPC-1 (homozygous mutant KRAS G12D human pancreatic cell line); test: KRAS 3D-Cell Proliferation Assay, AsPC-1 (Example 503); conditions: AsPC-1 3D culture, 7 days, CellTiter-Glo 3D, read-out: Prolif AsPC-1 3D ATP IC50
Method: Example 503: KRAS 3D-Cell Proliferation Assays. Cellular potencies of compounds are assessed by evaluating inhibition of proliferation in 3D cultures of homozygous mutant KRAS G12D human pancreatic cell lines (AsPC-1 and HPAC) as compared to a KRAS wild type human lung adenocarcinoma cell line (PC-9 and/or H1975). Cells are seeded into 384-well black round-bottom, ultra-low attachment assay plates in 50 uL cell growth medium (RPMI-1640 with 10% fetal bovine serum and 2 mM L-glutamine). After overnight incubation at 37° C. and 5% CO2, compounds solubilized in DMSO are added as dilution series to the wells in a total volume of 150 nL (0.3% DMSO final). The cells are incubated for 7 days at 37° C. and 5% CO2. Cell proliferation is quantitated by addition of 40 uL/well of CellTiter-GloÒ 3D (Promega), and the well contents are mixed 20× at high speed using liquid handling automation workstation (Bravo with 384-well head) and centrifuged at 1500 rpm for 2 minutes to eliminate bubbles. This reagent in combination with mechanical disruption releases the cellular ATP to promote activity in a luciferase-based enzyme/substrate chemiluminescent detection system. After a 30-minute incubation under ambient conditions with shaking and an additional 10 minutes without shaking, the luminescence is read on a plate reader (e.g., EnVision [PerkinElmer]). The results are normalized to percent inhibition based on the following control samples: DMSO (0% inhibition) and 1 μM staurosporine (100% inhibition). The normalized luminescence results are plotted against compound concentration, and the data are fit to a 4-parameter Hill equation to determine the IC50 values.

[2] = tested on: H1975 (KRAS wild type human lung adenocarcinoma cell line); test: KRAS 3D-Cell Proliferation Assay, H1975 (Example 503); conditions: H1975 3D culture, 7 days, CellTiter-Glo 3D, read-out: Prolif H1975 3D ATP IC50
Procedure, shortened: (§1)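 Cells grown in 3D in ultra-low attachment plates (RPMI-1640 with 10% FBS and 2 mM L-glutamine) received compound dilution series after overnight attachment, at 0.3% DMSO final, for 7 days at 37° C. ATP luminescence (CellTiter-Glo 3D) normalized to DMSO and 1 μM staurosporine; IC50 from 4-parameter Hill fit.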

[3] = tested on: HPAC (homozygous mutant KRAS G12D human pancreatic cell line); test: KRAS 3D-Cell Proliferation Assay, HPAC (Example 503); conditions: HPAC 3D culture, 7 days, CellTiter-Glo 3D, read-out: Prolif HPAC 3D ATP IC50
Procedure, shortened: as §1

SMILES	IC50 ([1]; Homo sapiens, ASPC1, 168 h) [nM]	IC50 ([2]; Homo sapiens, NCI-H1975, 168 h) [nM]	IC50 ([3]; Homo sapiens, HPAC, 168 h) [nM]	further results
Cc1cc(N)c(F)c(-c2nc3c4c(ncnc4c2Cl)N2C[C@H]4CC[C@H](N4)[C@H]2[C@H](C)O3)c1C(F)(F)F (atropisomer, axis not shown) [Compound 95, 3-((5S,5aS,6S,9R)-1-chloro-5-methyl-5a,6,7,8,9,10-hexahydro-5H-4-oxa-3,10a,11,13,14-pentaaza-6,9-methanonaphtho[1,8-ab]heptalen-2-yl)-2-fluoro-5-methyl-4-(trifluoromethyl)aniline]	200			
C[C@@H]1Oc2nc(-c3c(Cl)c(N)c(F)c(F)c3C(F)(F)F)c(F)c3nc(OC[C@@]45CCCN4C[C@H](F)C5)nc(c23)N2C[C@H]3CC[C@H](N3)[C@@H]12 (atropisomer, axis not shown; (aS)) [Compound 106, 2-Chloro-5,6-difluoro-3-((5S,5aS,6S,9R)-1-fluoro-12-(((2R,7aS)-2-fluorotetrahydro-1H-pyrrolizin-7a(5H)-yl)methoxy)-5-methyl-5a,6,7,8,9,10-hexahydro-5H-4-oxa-3,10a,11,13,14-pentaaza-6,9-methanonaphtho[1,8-ab]heptalen-2-yl)-4-(trifluoromethyl)aniline]	5.4	770		
Cc1c(F)c(N)cc(-c2nc3c4c(nc(OC[C@]5(CN6CC7(COC7)C6)CC5(F)F)nc4c2F)N2C[C@H]4CC[C@H](N4)[C@H]2[C@H](C)O3)c1C(F)(F)F (mixture of isomers) [165 a]				IC50 [1]: 0.6 nM; IC50 [3]: 0.63 nM; IC50 [2]: 374 nM
Cc1c(F)c(N)cc(-c2nc3c4c(nc(OCC5COCC6CCCN65)nc4c2F)N2CC4CCC(N4)C2C(C)O3)c1C(F)(F)F (single isomer, unassigned) [121 (isomer 2)]	41			
Cc1c(F)c(N)cc(-c2nc3c4c(nc(OCC56CCCC5N(C)CCC6)nc4c2F)N2C[C@H]4CC[C@H](N4)[C@H]2[C@H](C)O3)c1C(F)(F)F (single isomer, unassigned) [126 (isomer 1)]	0.6			
Cc1c(F)c(N)cc(-c2nc3c4c(nc(OCC56CCCN5CC(F)C6F)nc4c2F)N2C[C@H]4CC[C@H](N4)[C@H]2[C@H](C)O3)c1C(F)(F)F (single isomer, unassigned) [143 (isomer 2)]	4.1			
Cc1c(F)c(N)cc(-c2nc3c4c(nc(OC[C@@]56CCCN5C[C@H](F)C6)nc4c2F)N2C[C@H]4CC[C@H](N4)[C@@H]2C(C)O3)c1C(F)(F)F (single isomer, unassigned) [237 (isomer 2)]	200	1040	3.63	
Cc1c(F)c(N)cc(-c2nc3c4c(nc(OCC56CCN(C)C5COC6)nc4c2F)N2C[C@H]4CC[C@H](N4)[C@H]2[C@H](C)O3)c1C(F)(F)F (single isomer, unassigned) [258 (isomer 1)]	8.1	1560	5	
Cc1c(F)c(N)cc(-c2nc3c4c(nc(OCC56CCN5CC(F)(F)C6)nc4c2F)N2C[C@H]4CC[C@H](N4)[C@H]2[C@H](C(F)(F)F)O3)c1C(F)(F)F (single isomer, unassigned) [263 (diast. 1)]	7.1			
Cc1cc(N)c(F)c(-c2nc3c4c(nc(OCC56CCN5CC(F)(F)C6)nc4c2F)N2C[C@H]4CC[C@H](N4)[C@H]2[C@H](C)O3)c1 (stereo in doubt) [Compound 23, 3-((5S,5aS,6S,9R)-12-((3,3-difluoro-1-azabicyclo[3.2.0]heptan-5-yl)methoxy)-1-fluoro-5-methyl-5a,6,7,8,9,10-hexahydro-5H-4-oxa-3,10a,11,13,14-pentaaza-6,9-methanonaphtho[1,8-ab]heptan-2-yl)-2-fluoro-5-methylaniline]	14000			IC50 [1]: ≥ 20000 nM
Cc1c(F)c(N)cc(-c2nc3c4c(nc(OC[C@]5(CN6CC7(COC7)C6)CC5(F)F)nc4c2F)N2C[C@H]4CC[C@H](N4)[C@H]2[C@H](C(F)(F)F)O3)c1C(F)(F)F [255 a]				IC50 [1]: 6.6 nM
C#Cc1c(F)ccc2cccc(-c3nc4c5c(nc(OCC67CCN6CC(F)(F)C7)nc5c3F)N3C[C@H]5CC[C@H](N5)[C@H]3[C@H](C)O4)c12 (stereo partly drawn) [Compound 22, (5S,5aS,6S,9R)-12-((3,3-difluoro-1-azabicyclo[3.2.0]heptan-5-yl)methoxy)-2-(8-ethynyl-7-fluoronaphthalen-1-yl)-1-fluoro-5-methyl-5a,6,7,8,9,10-hexahydro-5H-4-oxa-3,10a,11,13,14-pentaaza-6,9-methanonaphtho[1,8-ab]heptalene]	60.3	20000	139	
Cc1c(F)c(N)cc(-c2nc3c4c(nc(OC[C@@]56CCCN5C[C@H](F)C6)nc4c2F)N2C[C@H]4CC[C@H](N4)[C@H]2CO3)c1C(F)(F)F [Compound 61, 2-Fluoro-5-((5aS,6S,9R)-1-fluoro-12-(((2R,7aS)-2-fluorotetrahydro-1H-pyrrolizin-7a(5H)-yl)methoxy)-5a,6,7,8,9,10-hexahydro-5H-4-oxa-3,10a,11,13,14-pentaaza-6,9-methanonaphtho[1,8-ab]heptalen-2-yl)-3-methyl-4-(trifluoromethyl)aniline]	44.5	2610	21.3	
Cc1c(F)c(N)cc(-c2nc3c4c(nc(OC[C@@]56CCCN5CC5(CC5(F)F)C6)nc4c2F)N2C[C@H]4CC[C@H](N4)[C@H]2[C@H](C)O3)c1C(F)(F)F (stereo partly drawn) [Compound 62, 5-((5S,5aS,6S,9R)-12-(((7a′S)-2,2-Difluorodihydro-1′H,3′H-spiro[cyclopropane-1,2′-pyrrolizin]-7a′(5′H)-yl)methoxy)-1-fluoro-5-methyl-5a,6,7,8,9,10-hexahydro-5H-4-oxa-3,10a,11,13,14-pentaaza[6,9]methanonaphtho[1,8-ab]heptalen-2-yl)-2-fluoro-3-methyl-4-(trifluoromethyl)aniline]	0.3	111	0.261	
Cc1c(F)c(N)cc(-c2nc3c4c(nc(OC[C@@]56CCCN5C/C(=C\F)C6)nc4c2F)N2C[C@H]4CC[C@H](N4)[C@H]2[C@H](C)O3)c1C(F)(F)F [Compound 64, 2-fluoro-5-((5S,5aS,6S,9R)-1-fluoro-12-(((S,Z)-2-(fluoromethylene)tetrahydro-1H-pyrrolizin-7a(5H)-yl)methoxy)-5-methyl-5a,6,7,8,9,10-hexahydro-5H-4-oxa-3,10a,11,13,14-pentaaza-6,9-methanonaphtho[1,8-ab]heptalen-2-yl)-3-methyl-4-(trifluoromethyl)aniline]	0.9	235	0.46	
CO[C@H]1CN(CC2(COc3nc4c5c(nc(-c6cc(N)nc(C)c6C(F)(F)F)c(F)c5n3)O[C@@H](C)[C@@H]3[C@@H]5CC[C@H](CN43)N5)CC2)C[C@@H]1F [Compound 291, 4-((5S,5aS,6S,9R)-1-fluoro-12-((1-(((3S,4S)-3-fluoro-4-methoxypyrrolidin-1-yl)methyl)cyclopropyl)methoxy)-5-methyl-5a,6,7,8,9,10-hexahydro-5H-4-oxa-3,10a,11,13,14-pentaaza-6,9-methanonaphtho[1,8-ab]heptalen-2-yl)-6-methyl-5-(trifluoromethyl)pyridin-2-amine]		12200	4.09	
